Values belong to the compound of their own block, whether it stands above or below them.
How the values were obtained:
[1] = target: Receptor tyrosine-protein kinase erbB-2 (Homo sapiens, UniProt P04626); test: Inhibition of HER2 (unknown origin)
[2] = target: T1, Epidermal growth factor receptor (Homo sapiens, UniProt P00533); test: Inhibition of EGFR (unknown origin)
[3] = target: Histone deacetylase; test: Inhibition of HDAC in human HeLa cell nuclear extract using fluorogenic Boc-Lys(acetyl)-AMC as substrate preincubated for 5 mins followed by addition of substrate measured after 20 mins by microplate reader; assay type: cell-free
[4] = target: T1, Epidermal growth factor receptor; test: Inhibition of EGFR (unknown origin) using synthetic biotinylated peptide as substrate […] by microplate reader method relative to control
[5] = target: T2, Protein deacetylase HDAC6 (Homo sapiens, UniProt Q9UBN7); test: Inhibition of human recombinant HDAC6 expressed in insect High5 cells using baculovirus expression system using Boc-Lys (epsilon-acetyl)-AMC as substrate incubated for 3 hrs by multilabel plate reader method; design: species or system BTI-TN-5B1-4
T2 sequence (Q9UBN7 whole entry): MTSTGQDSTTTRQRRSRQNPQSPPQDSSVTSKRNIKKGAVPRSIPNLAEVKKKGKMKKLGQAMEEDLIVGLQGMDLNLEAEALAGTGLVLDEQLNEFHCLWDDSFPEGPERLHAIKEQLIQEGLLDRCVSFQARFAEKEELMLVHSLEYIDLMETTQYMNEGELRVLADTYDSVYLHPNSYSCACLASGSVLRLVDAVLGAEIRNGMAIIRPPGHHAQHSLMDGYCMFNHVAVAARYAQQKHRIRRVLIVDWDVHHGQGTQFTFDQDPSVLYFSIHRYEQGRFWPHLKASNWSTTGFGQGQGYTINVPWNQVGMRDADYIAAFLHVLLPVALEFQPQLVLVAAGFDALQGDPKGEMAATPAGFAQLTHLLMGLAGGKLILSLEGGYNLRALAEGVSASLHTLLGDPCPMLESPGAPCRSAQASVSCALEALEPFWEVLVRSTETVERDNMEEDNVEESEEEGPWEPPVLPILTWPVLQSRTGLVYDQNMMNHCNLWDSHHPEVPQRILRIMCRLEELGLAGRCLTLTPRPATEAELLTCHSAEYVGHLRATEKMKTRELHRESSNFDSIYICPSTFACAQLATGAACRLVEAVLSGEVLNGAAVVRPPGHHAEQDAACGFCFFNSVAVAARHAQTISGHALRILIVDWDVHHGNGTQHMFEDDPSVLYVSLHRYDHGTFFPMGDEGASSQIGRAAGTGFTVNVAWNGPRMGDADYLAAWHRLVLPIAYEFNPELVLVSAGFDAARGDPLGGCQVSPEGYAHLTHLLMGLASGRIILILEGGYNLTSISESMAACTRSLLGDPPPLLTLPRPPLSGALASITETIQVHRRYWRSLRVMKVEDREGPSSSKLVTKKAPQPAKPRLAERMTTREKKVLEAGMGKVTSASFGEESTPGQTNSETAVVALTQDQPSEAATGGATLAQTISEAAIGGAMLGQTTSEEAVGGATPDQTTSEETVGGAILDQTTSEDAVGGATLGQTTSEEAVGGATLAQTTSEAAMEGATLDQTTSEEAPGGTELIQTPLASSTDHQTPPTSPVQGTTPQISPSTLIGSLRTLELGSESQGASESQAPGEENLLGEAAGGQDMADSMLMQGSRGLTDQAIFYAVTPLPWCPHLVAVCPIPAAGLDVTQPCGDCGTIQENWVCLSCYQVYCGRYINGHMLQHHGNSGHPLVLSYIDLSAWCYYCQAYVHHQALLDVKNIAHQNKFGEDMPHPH

[6] = target: Histone deacetylase 3 (Homo sapiens, UniProt O15379); test: Inhibition of human recombinant HDAC3 expressed in insect High5 cells using baculovirus expression system using Ac-Lys-Tyr-Lys (epsilon-acetyl)-AMC as substrate incubated for 24 hrs by multilabel plate reader method; design: species or system BTI-TN-5B1-4
[7] = target: T3, Histone deacetylase 1 (Homo sapiens, UniProt Q13547); test: Inhibition of human recombinant HDAC1 expressed in insect High5 cells using baculovirus expression system using Ac-Lys-Tyr-Lys (epsilon-acetyl)-AMC as substrate incubated for 24 hrs by multilabel plate reader method; design: species or system BTI-TN-5B1-4
[8] = test system: A549; test: Growth inhibition of human A549 cells; assay type: functional
[9] = test system: MCF7; test: Growth inhibition of human MCF7 cells; assay type: functional
[10] = test system: A-431; test: Growth inhibition of human A-431 cells; assay type: functional
[11] = target: Nuclear factor NF-kappa-B complex (Homo sapiens, UniProt P19838+Q00653+Q04206); test: Inhibition of NF-kappaB (unknown origin); assay type: protein-complex assay
[12] = test system: KG-1; test: Growth inhibition of human KG-1 cells incubated for 72 hrs by MTT assay; assay type: functional
[13] = test system: MDA-MB-468; test: Growth inhibition of human MDA-MB-468 cells incubated for 72 hrs by MTT assay; assay type: functional
[14] = test system: HT-29; test: Growth inhibition of human HT-29 cells incubated for 72 hrs by MTT assay; assay type: functional
[15] = test system: MDA-MB-231; test: Growth inhibition of human MDA-MB-231 cells incubated for 72 hrs by MTT assay; assay type: functional
[16] = target: Tubulin; test: Inhibition of tubulin polymerization (unknown origin); assay type: protein-complex assay, Homo sapiens
[17] = test system: MCF7; test: Antiproliferative activity against human MCF7 cells overexpressing HER2 assessed as cell growth inhibition incubated for 24 hrs; assay type: functional
[18] = test system: NCI-H1975; test: Antiproliferative activity against human H1975 cells overexpressing EGFR T790M/L858R assessed as cell growth inhibition incubated for 24 hrs; assay type: functional
[19] = test system: A-431; test: Antiproliferative activity against human A-431 cells overexpressing wildtype EGFR assessed as cell growth inhibition incubated for 24 hrs; assay type: functional
[20] = target: T1, Epidermal growth factor receptor; test: Inhibition of EGFR (unknown origin) by microplate reader
[21] = target: T1, Epidermal growth factor receptor; test: Inhibition of EGFR (unknown origin) using biotin as substrate incubated for 2 hrs by HTRF assay
[22] = target: Fibroblast growth factor receptor 4 (Homo sapiens, UniProt P22455); test: Inhibition of FGFR4 (unknown origin) using biotin as substrate incubated for 2 hrs by HTRF assay
[23] = target: T3, Histone deacetylase 1; test: Inhibition of HDAC1 (unknown origin)
[24] = target: T2, Protein deacetylase HDAC6; test: Inhibition of HDAC6 (unknown origin)
[25] = target: Tubulin; test: Inhibition of tubulin polymerization (unknown origin) by measuring absorbance; assay type: protein-complex assay, Homo sapiens

T1 sequence (P00533 whole entry): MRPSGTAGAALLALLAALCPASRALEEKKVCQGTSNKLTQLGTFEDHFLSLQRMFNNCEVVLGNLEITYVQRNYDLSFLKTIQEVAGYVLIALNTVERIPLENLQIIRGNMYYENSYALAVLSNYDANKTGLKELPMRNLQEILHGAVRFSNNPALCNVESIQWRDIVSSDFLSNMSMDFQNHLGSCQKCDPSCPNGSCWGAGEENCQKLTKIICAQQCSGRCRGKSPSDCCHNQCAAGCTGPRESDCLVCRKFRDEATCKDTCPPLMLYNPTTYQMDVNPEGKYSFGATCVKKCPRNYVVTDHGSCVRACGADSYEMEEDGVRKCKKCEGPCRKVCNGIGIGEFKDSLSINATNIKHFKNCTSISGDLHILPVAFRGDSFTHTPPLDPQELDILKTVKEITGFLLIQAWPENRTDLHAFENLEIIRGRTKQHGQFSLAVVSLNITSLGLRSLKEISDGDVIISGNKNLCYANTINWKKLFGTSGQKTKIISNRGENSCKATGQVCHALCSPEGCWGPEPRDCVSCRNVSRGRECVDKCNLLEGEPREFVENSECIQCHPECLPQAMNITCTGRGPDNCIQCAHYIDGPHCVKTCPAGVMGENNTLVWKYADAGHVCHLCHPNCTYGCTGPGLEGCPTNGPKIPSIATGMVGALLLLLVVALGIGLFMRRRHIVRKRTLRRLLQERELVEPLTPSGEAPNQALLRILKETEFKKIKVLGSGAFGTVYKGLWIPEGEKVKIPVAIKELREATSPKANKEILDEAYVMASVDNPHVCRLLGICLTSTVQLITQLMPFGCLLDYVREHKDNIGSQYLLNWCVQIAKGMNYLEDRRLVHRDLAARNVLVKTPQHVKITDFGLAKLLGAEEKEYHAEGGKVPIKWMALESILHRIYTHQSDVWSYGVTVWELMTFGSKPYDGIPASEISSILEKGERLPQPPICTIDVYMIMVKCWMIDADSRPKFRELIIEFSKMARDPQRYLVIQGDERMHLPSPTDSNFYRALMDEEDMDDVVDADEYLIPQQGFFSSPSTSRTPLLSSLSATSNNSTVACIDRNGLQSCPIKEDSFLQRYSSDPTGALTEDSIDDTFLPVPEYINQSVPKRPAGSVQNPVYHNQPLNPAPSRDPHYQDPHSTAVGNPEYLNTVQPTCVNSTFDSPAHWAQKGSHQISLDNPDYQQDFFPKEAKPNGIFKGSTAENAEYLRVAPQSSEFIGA
Sequence of Nuclear factor NF-kappa-B complex (P19838 1-433 limits assumed): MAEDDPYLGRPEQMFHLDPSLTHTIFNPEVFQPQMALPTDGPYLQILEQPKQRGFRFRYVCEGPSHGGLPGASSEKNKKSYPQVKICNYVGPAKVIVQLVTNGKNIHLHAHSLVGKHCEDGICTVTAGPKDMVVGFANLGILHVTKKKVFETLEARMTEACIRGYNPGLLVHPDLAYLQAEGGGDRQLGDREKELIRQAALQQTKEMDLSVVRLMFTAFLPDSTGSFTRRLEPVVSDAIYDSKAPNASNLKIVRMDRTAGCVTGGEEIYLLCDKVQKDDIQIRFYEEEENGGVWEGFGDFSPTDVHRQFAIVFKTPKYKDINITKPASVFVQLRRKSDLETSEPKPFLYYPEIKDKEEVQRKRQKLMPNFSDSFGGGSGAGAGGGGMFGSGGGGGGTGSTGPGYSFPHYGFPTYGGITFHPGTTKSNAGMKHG
Sequence of Nuclear factor NF-kappa-B complex (Q00653 1-454 limits assumed): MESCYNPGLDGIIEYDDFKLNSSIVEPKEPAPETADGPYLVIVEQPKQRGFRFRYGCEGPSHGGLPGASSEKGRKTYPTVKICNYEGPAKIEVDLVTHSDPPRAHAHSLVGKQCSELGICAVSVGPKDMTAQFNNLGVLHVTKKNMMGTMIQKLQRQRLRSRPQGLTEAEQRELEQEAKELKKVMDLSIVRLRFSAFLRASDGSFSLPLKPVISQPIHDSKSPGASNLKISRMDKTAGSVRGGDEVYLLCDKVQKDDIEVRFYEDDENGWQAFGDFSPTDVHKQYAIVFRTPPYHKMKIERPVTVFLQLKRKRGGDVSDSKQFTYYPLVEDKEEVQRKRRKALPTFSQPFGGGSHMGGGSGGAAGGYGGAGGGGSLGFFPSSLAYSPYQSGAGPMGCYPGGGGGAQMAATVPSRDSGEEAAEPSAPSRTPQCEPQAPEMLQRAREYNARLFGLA
Sequence of Nuclear factor NF-kappa-B complex (Q04206 whole entry): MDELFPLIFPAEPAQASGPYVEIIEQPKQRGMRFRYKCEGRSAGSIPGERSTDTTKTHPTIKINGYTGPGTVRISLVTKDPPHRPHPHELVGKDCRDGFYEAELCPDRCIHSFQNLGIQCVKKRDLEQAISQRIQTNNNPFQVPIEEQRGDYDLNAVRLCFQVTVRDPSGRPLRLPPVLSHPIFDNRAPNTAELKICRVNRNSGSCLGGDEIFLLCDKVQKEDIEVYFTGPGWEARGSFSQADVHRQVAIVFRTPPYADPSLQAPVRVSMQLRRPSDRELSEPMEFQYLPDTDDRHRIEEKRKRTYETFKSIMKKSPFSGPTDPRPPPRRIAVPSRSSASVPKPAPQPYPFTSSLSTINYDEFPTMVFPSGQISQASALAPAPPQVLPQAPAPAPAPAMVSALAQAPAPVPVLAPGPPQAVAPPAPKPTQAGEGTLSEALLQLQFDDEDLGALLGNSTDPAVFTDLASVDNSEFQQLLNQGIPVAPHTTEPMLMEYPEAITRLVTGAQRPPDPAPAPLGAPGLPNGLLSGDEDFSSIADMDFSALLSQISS
T3 sequence (Q13547 whole entry): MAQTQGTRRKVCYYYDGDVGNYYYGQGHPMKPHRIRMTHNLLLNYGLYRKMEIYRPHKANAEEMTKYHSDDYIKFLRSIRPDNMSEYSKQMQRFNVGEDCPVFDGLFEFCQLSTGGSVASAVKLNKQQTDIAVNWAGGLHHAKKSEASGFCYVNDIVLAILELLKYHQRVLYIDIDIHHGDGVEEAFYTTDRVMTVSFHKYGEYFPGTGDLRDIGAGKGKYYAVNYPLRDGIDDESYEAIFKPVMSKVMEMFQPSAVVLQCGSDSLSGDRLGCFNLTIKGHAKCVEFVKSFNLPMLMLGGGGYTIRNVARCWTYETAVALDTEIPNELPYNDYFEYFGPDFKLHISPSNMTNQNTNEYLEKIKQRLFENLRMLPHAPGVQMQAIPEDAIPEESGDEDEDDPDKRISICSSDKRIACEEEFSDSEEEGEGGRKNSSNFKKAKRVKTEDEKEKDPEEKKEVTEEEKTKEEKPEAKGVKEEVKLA
Sequence of Receptor tyrosine-protein kinase erbB-2 (P04626 whole entry): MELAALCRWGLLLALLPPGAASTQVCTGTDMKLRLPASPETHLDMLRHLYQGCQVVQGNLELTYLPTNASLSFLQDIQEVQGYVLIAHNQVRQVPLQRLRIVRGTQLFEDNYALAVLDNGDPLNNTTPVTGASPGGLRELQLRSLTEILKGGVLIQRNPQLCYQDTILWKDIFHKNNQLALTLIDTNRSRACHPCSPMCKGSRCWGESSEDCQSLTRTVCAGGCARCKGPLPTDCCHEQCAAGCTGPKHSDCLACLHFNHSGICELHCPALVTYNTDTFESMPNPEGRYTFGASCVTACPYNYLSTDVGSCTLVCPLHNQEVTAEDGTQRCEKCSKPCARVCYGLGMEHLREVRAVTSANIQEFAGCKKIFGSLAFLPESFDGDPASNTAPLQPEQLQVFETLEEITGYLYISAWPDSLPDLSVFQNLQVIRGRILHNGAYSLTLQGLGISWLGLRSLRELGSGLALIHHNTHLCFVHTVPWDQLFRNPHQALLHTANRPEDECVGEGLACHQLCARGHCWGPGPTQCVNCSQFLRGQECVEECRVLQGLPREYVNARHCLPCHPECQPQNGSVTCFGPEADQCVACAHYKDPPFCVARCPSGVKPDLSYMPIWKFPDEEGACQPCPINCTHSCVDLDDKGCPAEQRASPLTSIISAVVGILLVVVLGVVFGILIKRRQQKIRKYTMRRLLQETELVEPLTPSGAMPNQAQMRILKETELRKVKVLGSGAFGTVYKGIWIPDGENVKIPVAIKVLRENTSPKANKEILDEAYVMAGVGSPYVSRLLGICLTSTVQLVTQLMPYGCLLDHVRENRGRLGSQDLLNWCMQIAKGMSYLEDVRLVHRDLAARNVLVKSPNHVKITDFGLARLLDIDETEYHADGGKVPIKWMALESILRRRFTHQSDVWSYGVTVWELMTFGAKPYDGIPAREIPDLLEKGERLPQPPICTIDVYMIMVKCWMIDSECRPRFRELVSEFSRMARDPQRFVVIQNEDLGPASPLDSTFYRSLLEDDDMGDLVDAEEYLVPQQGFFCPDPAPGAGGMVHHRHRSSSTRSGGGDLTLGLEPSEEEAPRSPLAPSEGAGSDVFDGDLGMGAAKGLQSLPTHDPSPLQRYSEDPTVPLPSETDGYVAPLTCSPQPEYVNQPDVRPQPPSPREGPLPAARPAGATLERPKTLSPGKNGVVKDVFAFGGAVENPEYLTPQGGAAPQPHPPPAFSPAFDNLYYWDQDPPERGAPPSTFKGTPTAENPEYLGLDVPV
Sequence of Histone deacetylase 3 (O15379 whole entry): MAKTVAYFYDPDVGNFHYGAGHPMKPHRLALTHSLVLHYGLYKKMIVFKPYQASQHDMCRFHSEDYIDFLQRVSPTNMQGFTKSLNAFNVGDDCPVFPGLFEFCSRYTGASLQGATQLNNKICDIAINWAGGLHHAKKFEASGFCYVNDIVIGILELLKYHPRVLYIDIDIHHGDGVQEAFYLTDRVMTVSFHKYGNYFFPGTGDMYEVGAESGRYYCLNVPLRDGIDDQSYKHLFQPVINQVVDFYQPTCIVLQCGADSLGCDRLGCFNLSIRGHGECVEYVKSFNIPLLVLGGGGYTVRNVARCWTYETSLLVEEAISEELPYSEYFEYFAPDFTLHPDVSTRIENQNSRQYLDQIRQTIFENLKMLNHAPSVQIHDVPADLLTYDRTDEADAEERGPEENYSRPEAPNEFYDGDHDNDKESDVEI

SMILES: CCN1CCN(Cc2ccc(-c3cc4c(N[C@H](C)c5ccccc5)ncnc4[nH]3)cc2)CC1 [AEE-788]
- IC50 [1]: 6 nM

SMILES: O=C(/C=C\c1ccc(OC(F)(F)F)cc1)c1ccc(Br)c2cc(-c3ccc(F)cc3)oc12
- IC50 [2]: 120 nM

SMILES: Fc1cc(F)cc(NC(=S)Nc2ccc3ncnc(Nc4cccc(Cl)c4)c3c2)c1
- IC50 [11]: 300 nM

SMILES: COc1cc(Nc2ncnc3cc(-c4ccc(C)cc4)sc23)cc(OC)c1OC
- IC50 [16]: 710 nM

SMILES: CC(C)(O)CC(=O)NCCc1ccc2ncnc(Nc3ccc(Oc4cccc(C(F)(F)F)c4)c(Cl)c3)c2c1
- GI50 [17]: 94 nM
- GI50 [18]: 127 nM
- GI50 [19]: 41 nM

SMILES: NS(=O)(=O)c1ccc(NC(=O)c2ccccc2NC(=O)c2ccco2)cc1
- IC50 [20]: 31.2 nM
- IC50 [16]: 108 nM

SMILES: Cc1c(NC(=O)OC[C@@H]2COCCN2)cn2ncnc(Nc3ccc4c(cnn4Cc4cccc(F)c4)c3)c12 [AC-480]
- IC50 [1]: 30 nM

SMILES: O=C(Nc1ccccc1C(=O)N/N=C/c1ccc(O)cc1O)c1ccco1
- IC50 [20]: 85.4 nM
- IC50 [16]: 87.6 nM

SMILES: COc1cc2ncnc(Oc3ccc(NC(=O)Nc4cccc(C(F)(F)F)c4)c4ccccc34)c2cc1OC
- IC50 [21]: 83.9 nM
- IC50 [22]: 86.2 nM

SMILES: FC(F)(F)c1csc(NC(=S)Nc2ccc3ncnc(Nc4cccc(Cl)c4)c3c2)n1
- IC50 [11]: 600 nM

SMILES: COc1ccc(/C=C\C(=O)c2ccc(Br)c3cc(-c4ccc(F)cc4)oc23)cc1
- IC50 [2]: 90 nM

SMILES: CCOCCSc1nc(-c2ccccc2Cl)nn1CCOCC
- IC50 [20]: 86.7 nM
- IC50 [25]: 10700 nM

SMILES: COc1ccc(N(C)c2nc(N)nc3c(Cc4ccccc4)c[nH]c23)cc1
- IC50 [16]: > 20000 nM

Continued, in another order:

- IC50 [3]: 105 nM
SMILES: Cn1cc(-c2ccnc(Nc3ccc(C(=O)NCCCCCCC(=O)NO)cc3)n2)c2ccccc21

- inhibition [4]: 9.7%
- IC50 [5]: 560 nM
- IC50 [6]: 180 nM
- IC50 [7]: 160 nM
SMILES: COc1cc2ncnc(Nc3cccc(/C=C/C(=O)NO)c3)c2cc1OCCCN1CCOCC1

- GI50 [8]: 1640 nM
- GI50 [9]: 490 nM
- GI50 [10]: 670 nM
SMILES: O=C(Nc1ccc2ncnc(Nc3cccc(Br)c3)c2c1)c1ccc(C(F)(F)F)cc1O

- GI50 [13]: 230 nM
- GI50 [14]: 790 nM
- GI50 [15]: 600 nM
SMILES: COc1cc(NC(=O)CCCCCCC(=O)NO)ccc1Nc1nccc(-c2cn(C)c3ccccc23)n1
- GI50 [12]: 240 nM

- IC50 [11]: 4100 nM
SMILES: S=C(NCc1ccccc1)Nc1ccc2ncnc(Nc3cccc(Br)c3)c2c1

- IC50 [2]: 10.3 nM
- IC50 [23]: 1.1 nM
- IC50 [24]: 4.3 nM
SMILES: O=C(CCCCn1cc(-c2ccc3ncnc(Nc4ccccc4F)c3c2)nn1)NO

Reference: ChEMBL document CHEMBL5137005, “Development of Dual Inhibitors Targeting Epidermal Growth Factor Receptor in Cancer Therapy” (J Med Chem, 2022)
